Experimental data: PMC6273687, “Design, Synthesis and Biological Evaluation of Novel Primaquine-Cinnamic Acid Conjugates of the Amide and Acylsemicarbazide Type” (Molecules, 2016)

Columns and labels:
[1] = test system: CEM acute lymphoblastic leukemia cell line; test: Growth inhibition of tumor cell lines in vitro (MTT / cell counting); type: cell-based; details: Homo sapiens, 96 h, 4 days
Experimental: (§1) The experiments were carried out on a murine lymphocytic leukemia cell line (L1210) and five human tumor cell lines: CEM, HeLa, NCI-H460, SW 620 and MCF-7. The cells were cultured as monolayers and maintained in Dulbecco′s modified Eagle medium (DMEM) supplemented with 10% fetal bovine serum (FBS), 2 mM L-glutamine, 100 U/mL penicillin and 100 μg/mL streptomycin in a humidified atmosphere with 5% CO2 at 37 °C.
(§2) The growth inhibition activity of the compounds was assessed as described previously. The cell lines were inoculated onto a series of standard 96-well microtiter plates on day 0, at 1.5 × 10^4 cells/mL (SW 620, H460) to 2.5 × 10^4 cells/mL (MCF-7, CEM and L1210), depending on the growth of the tumor cell line. Test agents were then added in ten-fold dilutions (10^−8 to 10^−4 M) and the cell cultures were then incubated for 3–4 days with 5% CO2 at 37 °C. Working dilutions of the compounds were freshly prepared on the day of testing.
(§3) After 3 (MCF-7, SW 620, NCI-H460) or 4 days (CEM, L1210), the cell growth rate was evaluated first light microscopically, then by viable cell counting and/or by performing the MTT assay, which detects dehydrogenase activity in live, not dead, cells. The absorbance (A) was measured on a microplate reader at 570 nm. The absorbance is directly proportional to the number of living, metabolically active cells. […] If however, all of the tested concentrations produce PGs exceeding the respective reference level of effect (e.g., PG value of 50), then the highest tested concentration is assigned as the default value, which is preceded by a “>” sign. Minimum two individual experiments were carried out and each test point was performed in quadruplicate.

[2] = test system: HeLa cervical carcinoma cell line; test: as above; type: cell-based; details: Homo sapiens
Experimental: as §1, §2, §3

[3] = test system: L1210 murine lymphocytic leukemia cell line; test: as above; type: cell-based; details: Mus musculus, 96 h; L1210, 4 days
Experimental: as §1, §2, §3

[4] = test system: SW 620 colon carcinoma cell line; test: as above; type: cell-based; details: Homo sapiens, 72 h; SW 620, 3 days
Experimental: as §1, §2, §3

[5] = test system: MCF-7 breast carcinoma cell line; test: as above; type: cell-based, human; details: Homo sapiens, MCF7, 72 h; MCF-7, 3 days
Experimental: as §1, §2, §3

[6] = test system: NCI-H460 lung carcinoma cell line; test: as above; type: cell-based, human; details: Homo sapiens, 72 h; NCI-H460, 3 days
Experimental: as §1, §2, §3

[7] = Interaction with the stable radical DPPH (reducing ability)
Experimental: To a solution of DPPH in absolute ethanol the appropriate volume of the compounds (50 or 100 µM final concentrations) dissolved in DMSO was added. The absorbance was recorded at 517 nm after 20 and 60 min at room temperature. The experiments were repeated at least in triplicate and the standard deviation of absorbance was less than 10% of the mean. NDGA was used under the same experimental conditions as a reference compound.

[8] = target: T1, soybean lipoxygenase (LOX) (Glycine max, UniProt P08170); test: LOX inhibition study in vitro; type: biochemical; details: values in parentheses in Table 3
T1 construct: purchased Sigma-Aldrich
T1 sequence (P08170 1-839): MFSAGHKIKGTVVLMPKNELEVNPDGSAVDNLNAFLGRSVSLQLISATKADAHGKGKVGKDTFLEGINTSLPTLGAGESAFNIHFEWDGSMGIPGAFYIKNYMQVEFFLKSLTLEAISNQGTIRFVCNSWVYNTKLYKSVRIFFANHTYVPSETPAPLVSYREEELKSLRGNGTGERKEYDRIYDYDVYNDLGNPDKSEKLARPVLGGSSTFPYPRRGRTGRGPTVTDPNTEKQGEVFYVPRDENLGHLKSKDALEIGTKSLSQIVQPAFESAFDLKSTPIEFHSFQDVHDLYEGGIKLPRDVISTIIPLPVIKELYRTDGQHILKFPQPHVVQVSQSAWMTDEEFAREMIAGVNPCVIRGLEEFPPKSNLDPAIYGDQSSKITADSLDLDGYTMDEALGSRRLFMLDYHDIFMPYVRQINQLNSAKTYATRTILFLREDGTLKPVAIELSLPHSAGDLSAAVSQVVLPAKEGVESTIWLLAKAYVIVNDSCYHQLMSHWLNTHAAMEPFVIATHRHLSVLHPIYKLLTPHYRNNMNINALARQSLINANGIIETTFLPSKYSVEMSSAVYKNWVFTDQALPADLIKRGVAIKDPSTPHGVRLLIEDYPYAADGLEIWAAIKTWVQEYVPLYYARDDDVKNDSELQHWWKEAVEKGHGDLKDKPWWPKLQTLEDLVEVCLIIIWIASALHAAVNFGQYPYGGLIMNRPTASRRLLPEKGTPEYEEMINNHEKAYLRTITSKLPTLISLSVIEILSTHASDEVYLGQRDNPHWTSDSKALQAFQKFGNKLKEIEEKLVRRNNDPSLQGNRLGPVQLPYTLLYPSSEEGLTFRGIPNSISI
Experimental: LOX inhibitory assay in vitro was accomplished as described previously. The test compounds (stock solutions 10 mM in DMSO) were incubated at room temperature with sodium linoleate (c = 0.1 mM) and 0.2 mL of LOX enzyme solution (1/9 × 10^−4 m/V in saline). The conversion of sodium linoleate to 13-hydroperoxylinoleic acid was measured at 234 nm and compared with the reference inhibitor. Several concentrations were used for the IC50 determination.

[9] = Inhibition of linoleic acid peroxidation (AAPH-induced); details: 5 × 10^−5 M
How it was run: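 Sodium linoleate (16 mM stock) in 0.05 M phosphate buffer pH 7.4 at 37 °C under air, peroxidation initiated by AAPH (40 mM stock) with test compound added. Conjugated diene formation followed at 234 nm; at least triplicate runs, Trolox as reference.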

[10] = test system: HEL cells; test: Cytotoxicity assay, alteration of HEL cell morphology (MCC); type: cell-based, human; details: 3 days
Experimental: Cytotoxicity measurements were based on the inhibition of HEL cell growth. Cells were seeded at 5 × 10^3 cells/well into 96-well microtiter plates. Then, medium containing different concentrations of the test compounds was added. After 3 days of incubation at 37 °C, the alteration of morphology of the cell cultures was recorded light microscopically. Cytotoxicity was expressed as MCC.

[11] = test system: lung adenocarcinoma A549; test: Growth inhibition of tumor cell lines in vitro (reference drug); type: cell-based; details: Homo sapiens; lung adenocarcinoma A549 (footnote c, printed in NCI-H460 column)

IC50 [1]	IC50 [2]	IC50 [3]	IC50 [4]	IC50 [5]	IC50 [6]	IC50 [8]	IC50 [11]	Structure (SMILES)	DPPH-reducing ability RA (%) ([7]; 1 × 10^−4 M, 20 min)	DPPH-reducing ability RA (%) ([7]; 1 × 10^−4 M, 60 min)	DPPH-reducing ability RA (%) ([7]; 5 × 10^−5 M, 20 min)	DPPH-reducing ability RA (%) ([7]; 5 × 10^−5 M, 60 min)	LP Inhibition (%) [9]	MCC (minimum cytotoxic concentration) [10]
1300 ± 700 nM	2400 ± 200 nM	1700 ± 400 nM	> 100 µM	400 ± 200 nM	> 100 µM	50 µM	–	COc1ccc(/C=C/C(=O)NNC(=O)NCCCC(C)Nc2cc(OC)cc3cccnc23)cc1 (centres unmarked) [7c, (E)-1-(3-(4-Methoxyphenyl)acryloyl)-4-(4-(6-methoxyquinolin-8-ylamino)pentyl)semicarbazide]	39%	100%	54%	100%	89%	around 20 μΜ
900 ± 700 nM	2700 ± 1200 nM	1600 ± 700 nM	21 ± 4 µM	200 ± 200 nM	20 ± 0.7 µM	70 µM	–	COc1cc(NC(C)CCCNC(=O)NNC(=O)/C=C/c2ccc(Cl)cc2)c2ncccc2c1 (centres unmarked) [7g, (E)-1-(3-(4-Chlorophenyl)acryloyl)-4-(4-(6-methoxyquinolin-8-ylamino)pentyl)semicarbazide]	100%	100%	66%	100%	89%	around 20 μΜ
3200 ± 1700 nM	7100 ± 2600 nM	4200 ± 2400 nM	7.1 ± 1.9 µM	3900 ± 1600 nM	–	–	6.1 ± 0.6 µM	CNC(=O)c1cc(Oc2ccc(NC(=O)Nc3ccc(Cl)c(C(F)(F)F)c3)cc2)ccn1 [SOR, sorafenib, reference compound]	–	–	–	–	–	–
